Literature values, collected in publication PMC11585628 (Nature Communications, 2024).

Test system: SARS-CoV-2
Details: read-out: EC50 for antiviral effects

For XR8-24, the EC50 is given as 1.2 µM.
